One assay has as its target T1, BChE from equine serum (Equus caballus, UniProt P81908).
T1 construct: AChE from Electrophorus electricus and BChE from equine serum were purchased from Sigma-Aldrich Co. LLC; purchased Sigma-Aldrich Co. LLC; (St. Louis, MO, USA); host or cells: equine serum
Briefly: biochemical. The format is biochemical. Conditions: for Selectivity Index BChE: IC50 (AChE)/IC50 (BChE); for BChE potency relative to galantamine: comparison of IC50 values; for Cholinesterase selectivity (in words): from selectivity indices, AChE vs BChE; for inhibition at 100 µM: read-out: Percentage Inhibition at 100 µM, BChE, 100 µM. The protocol:
(§1) The cholinesterase inhibitory activities of the extracts and fompounds 1–6 were performed as previously described. AChE from Electrophorus electricus and BChE from equine serum were purchased from Sigma-Aldrich Co. LLC. (St. Louis, MO, USA). An amount of 0.1 M of sodium phosphate buffer (pH 8) was added to a 96-well microplate followed by the sample and 1U of the AChE or BChE. Then, 10 mM of 5,5′-dithiobis(2-nitrobenzoic acid) (DTNB) was added followed by 14 mM of acetylthiocholine iodide or S-butyrylthiocholine chloride. The final concentration of DMSO was 1%.

In assay [1] the target is T2, AChE from Electrophorus electricus (Electrophorus electricus, UniProt O42275).
T2 construct: purchased Sigma-Aldrich Co. LLC; (St. Louis, MO, USA)
T2 sequence (O42275 24-633): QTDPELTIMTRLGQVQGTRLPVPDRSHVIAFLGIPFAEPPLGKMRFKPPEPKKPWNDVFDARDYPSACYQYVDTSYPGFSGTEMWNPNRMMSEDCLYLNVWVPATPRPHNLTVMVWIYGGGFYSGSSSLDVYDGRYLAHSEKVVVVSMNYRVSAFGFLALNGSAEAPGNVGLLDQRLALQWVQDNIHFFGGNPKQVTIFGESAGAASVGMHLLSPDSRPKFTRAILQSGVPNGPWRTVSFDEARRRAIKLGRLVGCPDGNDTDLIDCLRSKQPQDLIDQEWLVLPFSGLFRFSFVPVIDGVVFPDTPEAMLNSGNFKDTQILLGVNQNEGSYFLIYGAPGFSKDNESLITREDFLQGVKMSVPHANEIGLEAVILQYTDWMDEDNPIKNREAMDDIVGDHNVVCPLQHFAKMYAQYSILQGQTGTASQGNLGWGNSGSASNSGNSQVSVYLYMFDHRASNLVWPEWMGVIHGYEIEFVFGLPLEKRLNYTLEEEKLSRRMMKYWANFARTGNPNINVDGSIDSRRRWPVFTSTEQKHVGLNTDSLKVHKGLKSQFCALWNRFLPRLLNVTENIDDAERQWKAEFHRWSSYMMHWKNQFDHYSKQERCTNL
The assay can be described thus: biochemical. Conditions: for Selectivity Index AChE: IC50 (BChE)/IC50 (AChE); for inhibition at 100 µM: read-out: Percentage Inhibition at 100 µM, AChE, 100 µM. The protocol:
as §1

The target of a further assay is T3, BChE (Equus caballus, UniProt P81908).
T3 construct: AChE from Electrophorus electricus and BChE from equine serum were purchased from Sigma-Aldrich Co. LLC; purchased Sigma-Aldrich Co. LLC; (St. Louis, MO, USA); host or cells: equine serum
T3 sequence (P81908 whole entry): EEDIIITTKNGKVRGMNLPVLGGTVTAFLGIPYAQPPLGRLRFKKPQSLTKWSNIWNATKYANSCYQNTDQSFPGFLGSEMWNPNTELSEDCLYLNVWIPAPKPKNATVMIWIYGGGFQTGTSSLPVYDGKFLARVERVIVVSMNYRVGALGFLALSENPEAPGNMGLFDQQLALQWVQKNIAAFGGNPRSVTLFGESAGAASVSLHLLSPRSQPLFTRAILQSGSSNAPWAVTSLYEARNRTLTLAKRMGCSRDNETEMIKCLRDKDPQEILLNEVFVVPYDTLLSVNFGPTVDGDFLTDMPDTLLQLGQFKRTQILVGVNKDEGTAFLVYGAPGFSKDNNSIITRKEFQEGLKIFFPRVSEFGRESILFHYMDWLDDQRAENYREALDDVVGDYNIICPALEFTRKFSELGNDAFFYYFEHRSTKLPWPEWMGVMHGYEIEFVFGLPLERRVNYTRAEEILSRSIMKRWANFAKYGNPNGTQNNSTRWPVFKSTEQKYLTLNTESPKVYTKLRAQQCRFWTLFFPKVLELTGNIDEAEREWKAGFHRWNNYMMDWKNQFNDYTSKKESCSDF
Briefly: Enzyme kinetic study against BChE (Lineweaver-Burk and secondary plots). Conditions: for Mode of inhibition against BChE: Lineweaver-Burk plot. Format: biochemical. How it is done: as §1, with “1%. Galanthamine was used as the standard for validation and result comparison. The absorbance was measured using a Tecan Infinite 200 Pro Microplate Spectrometer at 412 nm for 30 min.” for “1%.”
The enzyme kinetic studies of compounds 1 and 2 against BChE were performed in a similar manner to the in vitro BChE inhibition assay. The enzyme inhibition kinetic was carried out in the presence of three concentrations of the inhibitors, compounds 1 and 2, at various concentrations of the substrate, S-butyrylthiocholine chloride by constructing a Lineweaver–Burk plot (reciprocal plots of 1/V versus 1/[S]). The inhibition constant (Ki) was estimated from the secondary plot of the Lineweaver–Burk plot.

The values below come from paper PMC10341795, “N-Methyl Costaricine and Costaricine, Two Potent Butyrylcholinesterase Inhibitors from Alseodaphne pendulifolia Gamb” (International Journal of Molecular Sciences, 2023).

By IC50 is commonly meant the point on the concentration scale where inhibition reaches its midpoint. As usually defined, the inhibition is the drop in the measured response relative to a control, in per cent. One may read the Ki as a measure of affinity in units of concentration, obtained from inhibition or displacement.

“Also recorded” adds a separate entry of the source. Where two headings read alike, the source gives them in different places. A value given as a limit tells only on which side of the number the result lay.

T1 sequence (P81908 whole entry): as above

For the molecule `COc1cc2c(cc1O)C(Cc1ccc(Oc3cc(CC4c5cc(O)c(OC)cc5CCN4C)ccc3OC)cc1)NCC2` (stereo not shown) [Compound 1, N-methyl costaricine], at BChE from equine serum, the “Selectivity Index BChE” value worked out at 6.48, the “BChE potency relative to galantamine” value is “two-fold more potent than galantamine” and the “Cholinesterase selectivity (in words)” value was “BChE selective inhibitors”. On BChE from equine serum (mean ± SD (n = 3), read-out: IC50 BChE), the IC50 turned out to be 3.51 ± 0.8 µM. Moreover, the “Selectivity Index AChE” value in assay [1] came out at 0.15. The IC50 in assay [1] (mean ± SD (n = 3), read-out: IC50 AChE) was 22.8 ± 1.25 µM. Moreover, the inhibition at 100 µM in assay [1] (mean ± SD (n = 3)) is above 70%. For the same molecule, the “Mode of inhibition against BChE” value at BChE was “mixed-mode inhibitors; also recorded: mixed-mode inhibition”. The Ki at BChE (derived from secondary plots of Lineweaver-Burk plots, read-out: Inhibition constant Ki against BChE) was determined as 670 nM.
With `COc1cc2c(cc1O)[C@@H](Cc1ccc(Oc3cc(C[C@H]4NCCc5cc(OC)c(O)cc54)ccc3OC)cc1)NCC2` [Compound 2, costaricine], at BChE from equine serum, the IC50 amounted to 2.9 ± 0.56 µM, the “Selectivity Index BChE” value is reported as 6.03, the “BChE potency relative to galantamine” value is “two-fold more potent than galantamine” and the “Cholinesterase selectivity (in words)” value is “BChE selective inhibitors”. For the same molecule, in assay [1], the IC50 turned out to be 17.5 ± 2.16 µM and the “Selectivity Index AChE” value came to 0.17. Also, the inhibition at 100 µM in assay [1] (mean ± SD (n = 3)) is above 70%. For the same molecule, on BChE, the affinity, expressed as Ki, was 50 nM and the “Mode of inhibition against BChE” value was “mixed-mode inhibitors; also recorded: mixed-mode inhibition”. Besides, the “Fold higher affinity to BChE compared to compound 1” value on BChE (ratio of Ki values) was found to be 13 fold.
On to `COc1ccc2c(c1OC)-c1c(OC)c(OC)cc3c1C(C2)NCC3` (stereo not shown) [Compound 3, hernagine], for which the IC50 against BChE from equine serum was found to be 32.9 ± 0.99 µM. Also, the inhibition at 100 µM at BChE from equine serum (mean ± SD (n = 3)) was 88.87 ± 0.56%; in assay [1] (mean ± SD (n = 3)) it was below 10%.
In turn, `COc1ccc2c(c1OC)-c1c(OC)c(OC)cc3c1C(C2)N(C)CC3` (stereo not shown) [Compound 4, N-methyl hernagine] had an IC50 against BChE from equine serum of 49.7 ± 3.95 µM. Further, the results for the inhibition at 100 µM (on BChE from equine serum (mean ± SD (n = 3)); in assay [1] (mean ± SD (n = 3))) were 77.8 ± 3.73% and 23.1 ± 8.39%, respectively.
As for `COc1cc2c3c(c1O)-c1c(ccc(OC)c1OC)C[C@@H]3N(C)CC2` [Compound 5, corydine], half-maximal inhibition at BChE from equine serum (IC50) required 52.9 ± 4.11 µM. Also, the results for the inhibition at 100 µM (on BChE from equine serum (mean ± SD (n = 3)); in assay [1] (mean ± SD (n = 3))) were 77.9 ± 1.73% and 29.7 ± 1.85%, respectively.
